In brackets after ≈: the same amount, converted by molar mass.
Legend:
[1] = Microsomal stability, mouse liver microsomes; type: in vitro ADME; conditions: for CLint scaled at 1 μM / half-life at 1 μM: CD-1, mouse, microsomes, pH 7.4; for microsomal CLint at 1 μM: CD-1, pH 7.4, mouse liver microsomes, read-out: MLM Clint(mic)
Outline: (§1)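 Compounds at 1 μM incubated at 37 °C with human or CD-1 mouse liver microsomes (0.5 mg/mL protein) plus NADPH regenerating system in 100 mM phosphate buffer, pH 7.4. Samples taken at 0–60 min, quenched in cold acetonitrile and analysed by LC-MS/MS.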

[2] = system: VERO green monkey kidney cells; assay: VERO mammalian cell toxicity assay; type: cell-based; conditions: Chlorocebus sabaeus; inhibition of growth of VERO green monkey kidney epithelial cells
[3] = system: Mycobacterium tuberculosis (strain H37Rv); assay: LORA minimum inhibitory concentration assay (low-oxygen/non-replicating); conditions: M.tb H37Rv, 90% inhibition of growth
[4] = Microsomal stability, human liver microsomes; type: in vitro ADME; conditions: pH 7.4; for microsomal CLint at 1 μM: human liver microsomes, read-out: HLM Clint(mic)
Outline: as §1

hERG = hERG (Homo sapiens, UniProt Q12809); assay: hERG channel blockade, manual patch clamp; type: cell-based; conditions: cloned hERG potassium channels, room temperature; for inhibition at 0.3 µM: read-out: hERG % inhib. at 0.3 µM; for inhibition at 1 µM: read-out: hERG % inhib. at 1.0 µM
Description: Selected compounds were evaluated for hERG channel blockade (Table 4) by WuXi AppTec (Shanghai) Co., Ltd. This was carried out using cloned hERG potassium channels according to their standard manual patch clamp method. Two concentrations (0.3 and 1.0 µM) were tested (at room temperature), and at least three replicates were obtained for each. Amitryptyline was used as a standard.

[5] = system: Mycobacterium tuberculosis (strain H37Rv); assay: MABA minimum inhibitory concentration assay (aerobic/replicating); type: cell-based; conditions: M.tb H37Rv; for MIC90: Mycobacterium tuberculosis, aerobic/replicating, 90% inhibition of growth
[6] = system: M. smegmatis inverted membrane vesicle; design: method as in doi:10.1039/C5MD00589B, PMID 35140452; conditions: M. smegmatis inverted membrane vesicle assay; cited from earlier work
tuberculosis = system: tuberculosis; design: method as in doi:10.1039/C5MD00589B, PMID 35140452; conditions: cited from earlier work
M.tb bacteria = system: M.tb bacteria; design: method as in doi:10.1039/C5MD00589B, PMID 35140452; conditions: cited from earlier work

Sequence of hERG (Q12809 whole entry): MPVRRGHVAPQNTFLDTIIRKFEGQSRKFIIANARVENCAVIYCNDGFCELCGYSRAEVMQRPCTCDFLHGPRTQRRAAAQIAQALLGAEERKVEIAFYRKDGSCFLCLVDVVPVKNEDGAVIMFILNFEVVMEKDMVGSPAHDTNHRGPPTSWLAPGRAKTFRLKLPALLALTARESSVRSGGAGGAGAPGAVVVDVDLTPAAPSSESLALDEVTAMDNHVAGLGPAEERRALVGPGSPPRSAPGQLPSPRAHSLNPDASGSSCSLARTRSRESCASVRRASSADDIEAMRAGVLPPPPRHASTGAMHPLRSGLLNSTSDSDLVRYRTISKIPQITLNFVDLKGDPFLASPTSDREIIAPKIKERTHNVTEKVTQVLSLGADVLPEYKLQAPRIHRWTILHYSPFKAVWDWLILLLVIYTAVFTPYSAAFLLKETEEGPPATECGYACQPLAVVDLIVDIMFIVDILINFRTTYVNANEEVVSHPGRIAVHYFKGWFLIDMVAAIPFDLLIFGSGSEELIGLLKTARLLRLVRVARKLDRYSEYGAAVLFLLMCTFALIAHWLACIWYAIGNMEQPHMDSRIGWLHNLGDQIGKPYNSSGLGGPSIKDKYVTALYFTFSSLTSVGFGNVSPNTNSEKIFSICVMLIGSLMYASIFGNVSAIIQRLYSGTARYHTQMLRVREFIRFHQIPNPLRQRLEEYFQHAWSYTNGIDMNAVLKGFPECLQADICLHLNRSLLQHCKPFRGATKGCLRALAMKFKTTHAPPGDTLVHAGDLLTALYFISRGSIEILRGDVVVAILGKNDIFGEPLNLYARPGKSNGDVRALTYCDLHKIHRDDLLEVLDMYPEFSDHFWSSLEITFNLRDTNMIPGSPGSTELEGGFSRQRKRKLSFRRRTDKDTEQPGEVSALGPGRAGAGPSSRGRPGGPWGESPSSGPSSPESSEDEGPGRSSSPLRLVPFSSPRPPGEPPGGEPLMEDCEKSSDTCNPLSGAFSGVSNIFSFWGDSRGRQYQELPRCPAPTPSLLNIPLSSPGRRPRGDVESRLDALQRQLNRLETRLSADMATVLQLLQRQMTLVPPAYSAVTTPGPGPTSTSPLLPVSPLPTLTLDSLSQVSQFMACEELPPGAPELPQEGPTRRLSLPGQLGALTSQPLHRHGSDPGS

Compound	CLint scaled at 1 μM [1] [mL/min/kg]	half-life at 1 μM [1] [h]	microsomal CLint at 1 μM [1] [µL/min/mg]	IC50 [2] [µg/mL]	melting point [°C]	MIC90 LORA [3] [µg/mL]	CLint scaled at 1 μM ([4]; human, microsomes) [mL/min/kg]	half-life at 1 μM ([4]; human, microsomes) [h]	microsomal CLint at 1 μM [4] [µL/min/mg]	half-life at 1 μM ([4]; human/mouse liver microsomes not distinguished, read-out: T½ values (microsomal stability)) [h]	inhibition at 0.3 µM (hERG) [%]	inhibition at 1 µM (hERG) [%]	anti-mycobacterial activity in words ([5]; MABA/LORA)	MIC90 [5] [µg/mL]	depletion of ATP [6]	activity in vivo in an acute mouse model of tuberculosis (tuberculosis)	inhibition of M.tb bacteria in culture (M.tb bacteria)
COc1ccc(-c2cnn3c(NCc4ccccn4)cc(-c4ccccc4)nc23)cc1 [Compound 20, 3-(4-Methoxyphenyl)-5-phenyl-N-(pyridin-2-ylmethyl)pyrazolo[1,5-a]pyrimidin-7-amine]	92	1	23	> 32	187 to 189	0.51 (≈ 1.25 µM)	20	1.03	22	< 1.42	0	0	active	3.6 (≈ 8.83 µM)			
CN(C)CCOc1ncc(Nc2cc(-c3ccccc3)nc3cc(-c4ccc(F)cc4)nn23)cc1F [Compound 5]															modest inhibitors	active in vivo	modest inhibitors
CN(C)CCOc1ncc(Nc2cc(C(F)(F)F)nc3cc(-c4ccc(F)cc4)nn23)cc1F [Compound 6]															modest inhibitors	active in vivo	modest inhibitors
Fc1ccc(-c2cnn3c(NCc4ccc(Cl)cn4)cc(-c4ccccc4)nc23)cc1 [Compound 53, N-((5-Chloropyridin-2-yl)methyl)-3-(4-fluorophenyl)-5-phenylpyrazolo[1,5-a]pyrimidin-7-amine]	< 38	> 2.42	< 9.6	> 32	139 to 141	7.2 (≈ 16.7 µM)	< 8.6	> 2.42	< 9.6		0.7	0		4.9 (≈ 11.4 µM)			

Source: paper PMC9506485, “Synthesis and Structure–Activity Relationships for the Anti-Mycobacterial Activity of 3-Phenyl-N-(Pyridin-2-ylmethyl)Pyrazolo[1,5-a]Pyrimidin-7-Amines” (Pharmaceuticals, 2022)
